Laboratory results taken from US7598269B2, “Methods and compositions for treating amyloid-related diseases” (Bellus Health (International) Limited, priority 2003, dated 2009).

How the values were obtained:
NAC peptide = molecular target: T1, NAC peptide (Homo sapiens, UniProt P37840); assay: Binding to NAC peptide by electrospray mass spectrometry; details: area of bound NAC-compound complex peaks / unbound NAC; compound:NAC 5:1, 6.6% EtOH, pH 7.4
T1 construct: NAC is a 35 amino acid long peptide with highly hydrophobic stretches
Protocol: The ability of the compounds of the present invention to bind to NAC peptide in aqueous solution was evaluated. The binding ability correlates to the intensities of the peptide-compound complex peaks observed by the Electrospray Mass Spectrum. Millipore distilled deionized water was used to prepare all aqueous solutions. For pH determination a Beckman Φ36 pH meter fitted with a Corning Semi-Micro Combination pH Electrode was employed.
The optimal cone voltage was determined to be 20V.
Mass spectrometry—Mass spectrometric analysis was performed using a Waters ZQ 4000 mass spectrometer equipped with a Waters 2795 sample manager. MassLynx 4.0 (earlier by MassLynx 3.5) was used for data processing and analysis. Test compounds were mixed with disaggregated peptides in aqueous media (6.6% EtOH) at a 5:1 ratio (20 μM NAC: 100 μM of test compound or 40 μM NAC:200 μM of test compound). The pH of the mixture was adjusted to 7.4 (±0.2) using 0.1% NaOH (3-5 μL). Periodically, NAC peptide solution at 20 μM or 40 μM was also prepared in the same fashion and run as control. The spectra were obtained by introducing the solutions to the electrospray source by direct infusion using a syringe pump at a flow rate of 25 μl/min, and scanning from 100 to 2100 Da in the positive mode. The scan time was 0.9 sec per scan with an inter-scan delay of 0.1 sec and the run time was 5 min for each sample. All the mass spectra were sum of 300 scans. The desolvation and source temperature was 70° C. and the cone and capillary voltage were maintained at 20 V and 3.2 kV respectively.
The total area under the peaks for the bound NAC-compound complex divided by total area under the peaks for unbound NAC was determined for each compound tested.

Aβ40 = molecular target: T2, Aβ40 (Homo sapiens, UniProt P05067); assay: Short term treatment of TgCRND8 mice: Aβ40 levels in plasma and brain (ELISA); assay type: in vivo, Mouse; details: for Aβ40 Change: plasma, vehicle (water) group, TgCRND8 mice
T2 construct: from tissue; host or cells: plasma and brain homogenate of TgCRND8 transgenic mice (hAPP transgene)
T2 sequence (P05067 672-711 limits assumed): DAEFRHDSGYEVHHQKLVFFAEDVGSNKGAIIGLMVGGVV
Description: (§1) Transgenic mice, […]8, expressing the human amyloid precursor protein (hAPP) develop a pathology resembling Alzheimer's disease. In particular, high levels of Aβ40 and Aβ42 have been documented in the plasma and the brain of these animals at 8-9 weeks of age, followed by early accumulation of amyloid plaques similar to the senile plaques observed in […]. These animals also display progressive cognitive deficits that parallel the appearance of degenerative changes. See, […], et al., J. Biol. Chem. 276, 21562-70 (2001). The short term therapeutic effect of 19 compounds of the invention was studied. […] The following abbreviations are used to designate these animals from the 3rd and 4th generation backcross in the present protocol: TgCRND8-2.B6C3F1 (N3); TgCRND8-2.B6C3F1 (N4). Baseline animals (Group 1) consisted of naive TgCRND8-2.B6C3F1(N3) at 11±1 weeks of age. These mice were used to determine the Aβ levels in the plasma and brain of naive transgenic animals at the initiation of treatment. […] At the end of the treatment periods, plasma and perfused brains were collected for quantification of Aβ levels. […] Plasma samples were immediately frozen and stored at -80° C. pending analysis. The brains were removed, frozen, and stored at -80° C. awaiting analysis. […] Samples were spun at 15000 g for 20 minutes and the supernatants were transferred to fresh tubes. […] The tubes were vortexed for 30 seconds and frozen at -80° C. […] Samples were thawed at room temperature, sonicated at 80° C. for 15 minutes and frozen again. This cycle was repeated 3 times to ensure homogeneity and samples were returned to -80° C. pending analysis. Aβ levels were evaluated in plasma and brain samples by ELISA using Human Aβ40 and Aβ42 Fluorometric ELISA kits from Biosource (Cat. […] In short, samples were thawed at room temperature, sonicated for 5 minutes at 80° C. (sonication for brain homogenates; no sonication for plasma samples) and kept on ice. Aβ peptides were captured using 100 μl of the diluted samples to the plate and incubated without shaking at 4° C. overnight. The samples were aspirated and the wells were rinsed 4 times with wash buffer obtained from the Biosource ELISA kit. The anti-Aβ40 or anti-Aβ42 rabbit polyclonal antiserum (specific for the Aβ40 or Aβ42 peptide) was added (100 μl) and the plate was incubated at room temperature for 2 hours with shaking. The wells were aspirated and washed 4 times before adding 100 μl of the alkaline phosphatase labeled anti-rabbit antibody and incubating at room temperature for 2 hours with shaking. The plates were then rinsed 5 times and the fluorescent substrate (100 μl) was added to the plate. The plate was incubated for 35 minutes at room temperature and the plate was read using a titer plate reader at an excitation wavelength of 460 nm and emission at 560 nm. Compounds were scored based on their ability to modulate levels of Aβ peptides in the plasma and the cerebral soluble/insoluble levels in the brain. Levels of Aβ observed in the plasma and brain of treated animals were normalized using values from vehicle-treated (water) or methylcellulose-treated control groups and ranked according to the strength of the pharmacological effect. Increases in the levels of Aβ peptides are indicated using “+” symbols, while decreases in the levels of Aβ peptides are indicated using “-” symbols. The strongest effects are recorded as “+++” or “---” while the weakest are shown as “+” or “-”.

Aβ42 = molecular target: T3, Aβ42 (Homo sapiens, UniProt P05067); assay: Short term treatment of TgCRND8 mice: Aβ42 levels in plasma and brain (ELISA); assay type: in vivo, Mouse; details: for Aβ42 Change: plasma, vehicle (water) group, TgCRND8 mice
T3 construct: from tissue; host or cells: plasma and brain homogenate of TgCRND8 transgenic mice (hAPP transgene)
T3 sequence (P05067 672-713 limits assumed): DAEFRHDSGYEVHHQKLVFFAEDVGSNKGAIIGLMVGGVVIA
Description: as §1

[1] = Day 14, 250 mg/kg daily subcutaneous
[2] = Day 28, 250 mg/kg daily subcutaneous
[3] = brain homogenate, vehicle group, Day 14, 250 mg/kg daily subcutaneous
[4] = brain homogenate, vehicle group, Day 28, 250 mg/kg daily subcutaneous

Row | Compound | Binding Strength (NAC peptide) | Aβ40 Change (Aβ40; [1]) | Aβ40 Change (Aβ40; [2]) | Aβ42 Change (Aβ42; [1]) | Aβ42 Change (Aβ42; [2]) | Aβ40 Change Soluble (Aβ40; [3]) | Aβ40 Change Insoluble (Aβ40; [4]) | Aβ42 Change Insoluble (Aβ42; [3]) | Aβ42 Change Soluble (Aβ42; [3]) | Aβ42 Change Insoluble (Aβ42; [4]) | Aβ42 Change Soluble (Aβ42; [4]) | Aβ40 Change Insoluble (Aβ40; [3]) | further results
1 | CCCCCCCCCCCC[N+](C)(C)CCCS(=O)(=O)[O-] [DF, CH3(CH2)11N^+(CH3)2(CH2)3SO3^−] | ++ (Moderate; when the total binding is between 120% and 70%) |  |  |  |  |  |  |  |  |  |  |  | 
2 | CH3(CH2)9N^+(CH3)2(CH2)3SO3^− [DB] | +++ (Strong; when the total binding is 120% and higher) |  |  |  |  |  |  |  |  |  |  |  | 
3 | CCCCCCCCCCCCCC[N+](C)(C)CCCS(=O)(=O)[O-] [NA, CH3(CH2)13N^+(CH3)2(CH2)3SO3^−] | ++ (Moderate; when the total binding is between 120% and 70%) |  |  |  |  |  |  |  |  |  |  |  | 
4 | CC(CO)NCCCS(=O)(=O)O (centres unmarked) [CW, 3-(1-hydroxy-2-propylamino)-1-propanesulfonic acid] |  | ++ (increases of 40 to 69% are scored as “++”) | ++ (increases of 40 to 69% are scored as “++”) | ++ (increases of 40 to 69% are scored as “++”) | + (increases in the levels of Aβ (relative to untreated control) of 20 to 39% are scored as “+”) |  |  |  |  |  |  |  | Aβ40 Change (total levels) (Aβ40; brain homogenate, vehicle group, Day 28, total Aβ40, soluble and insoluble not measured independently): + (increases in the levels of Aβ (relative to untreated control) of 20 to 39% are scored as “+”); Aβ42 Change (total levels) (Aβ42; brain homogenate, vehicle group, Day 28, total Aβ42, soluble and insoluble not measured independently): ++ (increases of 40 to 69% are scored as “++”)
5 | CC[C@@H](CO)NCCCS(=O)(=O)O [CU, (S)-3-(1-hydroxy-2-butylamino)-1-propanesulfonic acid] |  |  | + (increases in the levels of Aβ (relative to untreated control) of 20 to 39% are scored as “+”) |  | + (increases in the levels of Aβ (relative to untreated control) of 20 to 39% are scored as “+”) | + (increases in the levels of Aβ (relative to untreated control) of 20 to 39% are scored as “+”) | +++ (increases of 70% or higher are scored as “+++”) | − (Decreases in the levels of Aβ of 5 to 19% are scored as “−”) | ++ (increases of 40 to 69% are scored as “++”) | +++ (increases of 70% or higher are scored as “+++”) | ++ (increases of 40 to 69% are scored as “++”) |  | 
6 | CCCCCNCCCS(=O)(=O)O [CF, 3-pentylamino-1-propanesulfonic acid] |  |  |  |  |  | ++ (increases of 40 to 69% are scored as “++”) |  | −− (decreases of 20 to 38% are scored as “−−”) | − (Decreases in the levels of Aβ of 5 to 19% are scored as “−”) | + (increases in the levels of Aβ (relative to untreated control) of 20 to 39% are scored as “+”) |  | − (Decreases in the levels of Aβ of 5 to 19% are scored as “−”) | Aβ40 Change Soluble (Aβ40; [4]): + (increases in the levels of Aβ (relative to untreated control) of 20 to 39% are scored as “+”)
7 | O=C1NCCCC[C@@H]1NCCCS(=O)(=O)[O-].[Na+] | + (Weak; when the total binding is between 70% and 30%) |  |  |  |  |  |  |  |  |  |  |  | 
8 | CCCCCCCNCCCS(=O)(=O)O [CX, 3-heptylamino-1-propane-sulfonic acid] |  | ++ (increases of 40 to 69% are scored as “++”) | ++ (increases of 40 to 69% are scored as “++”) | ++ (increases of 40 to 69% are scored as “++”) | + (increases in the levels of Aβ (relative to untreated control) of 20 to 39% are scored as “+”) | − (Decreases in the levels of Aβ of 5 to 19% are scored as “−”) | + (increases in the levels of Aβ (relative to untreated control) of 20 to 39% are scored as “+”) | − (Decreases in the levels of Aβ of 5 to 19% are scored as “−”) | + (increases in the levels of Aβ (relative to untreated control) of 20 to 39% are scored as “+”) | +++ (increases of 70% or higher are scored as “+++”) | ++ (increases of 40 to 69% are scored as “++”) | − (Decreases in the levels of Aβ of 5 to 19% are scored as “−”) | 
9 | CCCC(CO)NCCCS(=O)(=O)O (racemic) [Compound CA, 3-[(dl)-1-hydroxy-2-pentyl]amino-1-propane-sulfonic acid] |  | +++ (increases of 70% or higher are scored as “+++”) | +++ (increases of 70% or higher are scored as “+++”) | +++ (increases of 70% or higher are scored as “+++”) | +++ (increases of 70% or higher are scored as “+++”) | + (increases in the levels of Aβ (relative to untreated control) of 20 to 39% are scored as “+”) | ++ (increases of 40 to 69% are scored as “++”) | −− (decreases of 20 to 38% are scored as “−−”) |  | + (increases in the levels of Aβ (relative to untreated control) of 20 to 39% are scored as “+”) | + (increases in the levels of Aβ (relative to untreated control) of 20 to 39% are scored as “+”) | − (Decreases in the levels of Aβ of 5 to 19% are scored as “−”) | Aβ40 Change Soluble (Aβ40; [4]): + (increases in the levels of Aβ (relative to untreated control) of 20 to 39% are scored as “+”)
10 | NCCCCS(=O)(=O)[O-].[Na+] | − (None; when the total binding is between 30% and 0%) |  |  |  |  |  |  |  |  |  |  |  | 
